According to US5580775A, “High affinity, brain-specific nucleic acids encoding a L-proline transporter, and vectors, and host cells comprising the same” (Emory University, priority 1992, dated 1996):
Read-outs that look alike come from different tables or passages of the source. Peptide text beside a SMILES is read from it.

T1: rat brain L-proline transporter (Rattus norvegicus, UniProt P28573)
T1 sequence (P28573 1-637): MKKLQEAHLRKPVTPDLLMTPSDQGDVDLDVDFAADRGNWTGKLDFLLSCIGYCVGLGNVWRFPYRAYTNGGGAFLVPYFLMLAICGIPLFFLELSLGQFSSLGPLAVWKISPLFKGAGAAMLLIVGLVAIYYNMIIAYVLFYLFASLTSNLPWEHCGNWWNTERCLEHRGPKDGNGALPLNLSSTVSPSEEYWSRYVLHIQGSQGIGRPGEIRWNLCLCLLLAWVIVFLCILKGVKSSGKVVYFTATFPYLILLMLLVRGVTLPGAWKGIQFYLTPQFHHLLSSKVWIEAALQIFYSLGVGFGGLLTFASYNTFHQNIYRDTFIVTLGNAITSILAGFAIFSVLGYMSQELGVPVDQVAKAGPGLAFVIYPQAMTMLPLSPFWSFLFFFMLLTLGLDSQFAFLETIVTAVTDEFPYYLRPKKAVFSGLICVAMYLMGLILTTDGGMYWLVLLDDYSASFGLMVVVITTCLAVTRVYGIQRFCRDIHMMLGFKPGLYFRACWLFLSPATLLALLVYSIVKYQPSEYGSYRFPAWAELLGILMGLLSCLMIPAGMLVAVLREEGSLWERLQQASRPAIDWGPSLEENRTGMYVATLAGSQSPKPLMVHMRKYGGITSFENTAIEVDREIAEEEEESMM

T2: high affinity, Na^+ -dependent rat brain L-proline transporter (Rattus norvegicus, UniProt P28573)
T2 sequence (P28573 1-637): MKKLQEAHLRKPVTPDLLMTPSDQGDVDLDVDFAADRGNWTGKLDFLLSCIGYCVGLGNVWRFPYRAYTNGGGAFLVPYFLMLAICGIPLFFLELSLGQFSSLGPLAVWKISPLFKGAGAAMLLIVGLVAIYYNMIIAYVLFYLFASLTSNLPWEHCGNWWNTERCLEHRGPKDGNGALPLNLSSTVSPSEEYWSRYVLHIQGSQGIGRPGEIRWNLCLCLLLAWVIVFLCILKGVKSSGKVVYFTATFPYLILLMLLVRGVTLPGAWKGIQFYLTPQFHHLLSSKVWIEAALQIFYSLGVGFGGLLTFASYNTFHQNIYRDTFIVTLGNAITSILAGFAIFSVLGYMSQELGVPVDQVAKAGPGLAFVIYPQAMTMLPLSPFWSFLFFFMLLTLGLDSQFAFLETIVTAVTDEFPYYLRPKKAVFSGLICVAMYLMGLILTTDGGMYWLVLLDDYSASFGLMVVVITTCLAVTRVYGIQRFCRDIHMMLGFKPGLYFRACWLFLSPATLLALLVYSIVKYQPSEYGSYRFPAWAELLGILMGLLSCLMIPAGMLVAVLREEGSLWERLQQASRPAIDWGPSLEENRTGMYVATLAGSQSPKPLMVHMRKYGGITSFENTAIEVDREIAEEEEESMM


Legend:
[1] = biological target: T1, rat brain L-proline transporter; experiment: cell-based
[2] = biological target: T1, rat brain L-proline transporter; experiment: Transport of L-[3H]glutamate or D-[3H]aspartate in HeLa fibroblasts expressing the transporter cDNA; assay type: cell-based; conditions: transient expression in HeLa fibroblasts
[3] = biological target: T2, high affinity, Na^+ -dependent rat brain L-proline transporter; experiment: L-proline uptake (saturation kinetics, Na+ dependence) in HeLa cells transfected with pPROT
rat brain synaptosomes = conditions: cited from earlier work
[4] = substrate: O=C(O)[C@@H]1CCCN1; experiment: cells, lysate or membranes; conditions: other: 20 min incubation, 50 nM L-[3H]proline plus unlabeled L-proline, HeLa cells transfected with pPROT
[5] = read-out: Ki values in excess of 100 μM (inhibition of proline uptake)
[6] = Ki (inhibition of proline uptake)
[7] = read-out: Ki (inhibition of proline uptake)

Molecule	Ki [1, 5] [µM]	other results
O=C(O)[C@H]1CCCN[C@H]1C(=O)O (racemic) [(+/-)cis-2,3-piperidine dicarboxylic acid]	> 100	–
N[C@]1(C(=O)O)CC[C@H](C(=O)O)C1 (relative stereo) [Trans-ACPD, trans1-aminocyclopentane-1,3-dicarboxylic acid]	> 100	–
NC1(C(=O)O)CC1 [1-Amino-1-cyclopropane carboxylic acid]	> 100	–
O=C(O)C1C=CCN1 (stereo not drawn) [3,4-Dehydroproline]	–	Ki [1, 6]: 31 µM
N[C@H](CC(=O)O)C(=O)O [D-Aspartic acid]	> 100	transport induced by the transporter cDNA (in words) [2]: did not induce transport
CCCC[C@@H](N)C(=O)O [D-Norleucine]	> 100	–
O=C(O)[C@H]1CCCN1 [D-Proline]	> 100	Ki ([1]; Ki (inhibition of L-[3H]proline transport)): > 100 µM
NCCCC(=O)O [GABA, gammaaminobutyric acid]	> 100	–
NCC(=O)O [Glycine]	> 100	–
NCC(=O)N1CCC[C@H]1C(=O)O [Glycylproline] (H-Gly-Pro-OH)	> 100	–
NC1CCN(O)C1=O (stereo not drawn) [HA-966, 3-Amino-1-hydroxy-2-pyrrolidone]	> 100	–
O=C(O)[C@@H]1C[C@@H](O)CN1 [Hydroxyproline]	> 100	–
N[C@H](C(=O)O)c1cc(=O)[nH]o1 [Ibotenic acid]	> 100	–
C=C(C)[C@H]1CN[C@H](C(=O)O)[C@H]1CC(=O)O [Kainic acid]	> 100	–
C[C@H](N)C(=O)O [L-Alanine]	> 100	–
N=C(N)NCCC[C@H](N)C(=O)O [L-Arginine]	> 100	–
NC(=O)C[C@H](N)C(=O)O [L-Asparagine]	> 100	–
N[C@@H](CC(=O)O)C(=O)O [L-Aspartic acid]	> 100	inhibition of L-proline uptake (in words) [1]: inability
O=C(O)[C@@H]1CCN1 [L-Azetidine-2-carboxylic acid]	> 100	Ki [1, 7]: 115 µM
N[C@@H](CS)C(=O)O [L-Cysteine]	–	Ki [1, 6]: 91 µM
N[C@@H](CSSC[C@H](N)C(=O)O)C(=O)O [L-Cystine]	> 100	–
N[C@@H](CCC(=O)O)C(=O)O [L-Glutamic acid]	> 100	transport induced by the transporter cDNA (in words) [2]: did not induce transport; inhibition of L-proline uptake (in words) [1]: inability
NC(=O)CC[C@H](N)C(=O)O [L-Glutamine]	> 100	–
N[C@@H](Cc1c[nH]cn1)C(=O)O [L-Histidine]	–	Ki [1, 6]: 83 µM

Molecule	Ki [1, 5] [µM]	other results
CC[C@H](C)[C@H](N)C(=O)O [L-Isoleucine]	> 100	–
CC(C)C[C@H](N)C(=O)O [L-Leucine]	> 100	–
NCCCC[C@H](N)C(=O)O [L-Lysine]	> 100	–
CSCC[C@H](N)C(=O)O [L-Methionine]	> 100	–
CCCC[C@H](N)C(=O)O [L-Norleucine]	–	Ki [1, 6]: 37 µM
N[C@@H](Cc1ccccc1)C(=O)O [L-Phenylalanine]	–	Ki [1, 6]: 48 µM
O=C(O)[C@@H]1CCCCN1 [L-Pipecolic acid]	–	Ki [1, 6]: 14 µM
NC(=O)[C@@H]1CCCN1 [L-Prolinamide]	> 100	–
COC(=O)[C@@H]1CCCN1 [L-Proline methyl ester]	> 100	–
O=C1CC[C@@H](C(=O)O)N1 [L-Pyroglutamic acid]	> 100	–
N[C@@H](CO)C(=O)O [L-Serine]	> 100	–
C[C@@H](O)[C@H](N)C(=O)O [L-Threonine]	> 100	–
O=C(O)[C@H]1CN[C@H](C(=O)O)C1 [L-Trans-2,4-PDC, trans-L-pyrrolidone-2,4-dicarboxylate]	> 100	inhibition of L-proline uptake (in words) [1]: none of the excitatory amino acid analogs examined, including the specific L-glutamate uptake blocker, trans-L-pyrrolidone-2, 4-dicarboxylate (L-trans-2,4-PDC) (Bridges et al., 1991), significantly inhibited L-proline uptake
N[C@@H](Cc1c[nH]c2ccccc12)C(=O)O [L-Tryptophan]	> 100	–
N[C@@H](Cc1ccc(O)cc1)C(=O)O [L-Tyrosine]	–	Ki ([1]; Ki values in excess of 100 μM (inhibition of proline uptake)): > 100 µM
CC(C)[C@H](N)C(=O)O [L-Valine]	> 100	–
O=C(O)[C@@H]1CCCN1 [L-proline]	–	endogenous L-proline transport as percent of pPROT-induced transport (HeLa cells): less than 10%; Km (HeLa cells; read-out: Km of endogenous L-proline transport, plasmid vector-transfected HeLa cells): > 200 µM; specific L-proline uptake upon isotonic substitution of NaCl with choline chloride ([3]; Na+ dependence, choline chloride): abolished; Km ([3]; read-out: apparent Michaelis constant (Km), 20 min incubation, 50 nM L-[3H]proline plus unlabeled L-proline, HeLa cells transfected with pPROT): ~9.7 µM; Km (rat brain synaptosomes; read-out: Km, high affinity component, high affinity): 6 to 12 µM; Km (rat brain synaptosomes; read-out: Km, low affinity component, low affinity): > 190 µM
CC(=O)N1CCC[C@H]1C(=O)O [N-acetylproline]	> 100	–
CN[C@H](CC(=O)O)C(=O)O [N-methyl-D-aspartate]	> 100	–
O=C(O)CNC(=O)[C@@H]1CCCN1 [Prolylglycine] (H-Pro-Gly-OH)	> 100	–
O=C(O)c1ccc[nH]1 [Pyrrole-2-carboxylic acid]	> 100	–
N[C@@H](Cn1oc(=O)[nH]c1=O)C(=O)O [Quisqualic acid]	> 100	–
CNCC(=O)O [Sarcosine]	–	Ki [1, 7]: 30 µM
high affinity, Na^+ -dependent rat brain L-proline transporter (Rattus norvegicus) (protein) MKKLQEAHLRKPVTPDLLMTPSDQGDVDLDVDFAADRGNWTGKLDFLLSCIGYCVGLGNVWRFPYRAYTNGGGAFLVPYFLMLAICGIPLFFLELSLGQFSSLGPLAVWKISPLFKGAGAAMLLIVGLVAIYYNMIIAYVLFYLFASLTSNLPWEHCGNWWNTERCLEHRGPKDGNGALPLNLSSTVSPSEEYWSRYVLHIQGSQGIGRPGEIRWNLCLCLLLAWVIVFLCILKGVKSSGKVVYFTATFPYLILLMLLVRGVTLPGAWKGIQFYLTPQFHHLLSSKVWIEAALQIFYSLGVGFGGLLTFASYNTFHQNIYRDTFIVTLGNAITSILAGFAIFSVLGYMSQELGVPVDQVAKAGPGLAFVIYPQAMTMLPLSPFWSFLFFFMLLTLGLDSQFAFLETIVTAVTDEFPYYLRPKKAVFSGLICVAMYLMGLILTTDGGMYWLVLLDDYSASFGLMVVVITTCLAVTRVYGIQRFCRDIHMMLGFKPGLYFRACWLFLSPATLLALLVYSIVKYQPSEYGSYRFPAWAELLGILMGLLSCLMIPAGMLVAVLREEGSLWERLQQASRPAIDWGPSLEENRTGMYVATLAGSQSPKPLMVHMRKYGGITSFENTAIEVDREIAEEEEESMM	–	Km [4]: 9.7 µM
